Results as given in the CheMixHub viscosity set.
± gives the uncertainty stated by the source.

Assay: xn = mol fraction of the nth substance listed

CN(C)C=O + CC(C)O
viscosity [mPa·s], 101 kPa
Settings	298.15 K	303.15 K	308.15 K	313.15 K	318.15 K	323.15 K
x1 = 0.0879	1.65 ± 0.04	1.44 ± 0.03	1.3 ± 0.1	1.14 ± 0.03	–	–
x1 = 0.0995	–	1.385 ± 0.011	1.237 ± 0.0097	1.096 ± 0.0087	0.9913 ± 0.008	0.88 ± 0.0072
x1 = 0.1606	1.46 ± 0.03	1.28 ± 0.03	1.16 ± 0.03	1.03 ± 0.02	–	–
x1 = 0.1992	–	1.166 ± 0.0093	1.057 ± 0.0085	0.9438 ± 0.0077	0.8597 ± 0.0071	0.778 ± 0.0065
x1 = 0.2389	1.34 ± 0.03	1.18 ± 0.03	1.08 ± 0.02	0.95 ± 0.02	–	–
x1 = 0.3011	–	1.034 ± 0.0084	0.9443 ± 0.0078	0.8524 ± 0.0071	0.7903 ± 0.0067	0.7214 ± 0.0062
x1 = 0.3433	1.24 ± 0.03	1.1 ± 0.1	1.01 ± 0.02	0.9 ± 0.1	–	–
x1 = 0.4009	–	0.9507 ± 0.0079	0.8752 ± 0.0074	0.8075 ± 0.0069	0.7462 ± 0.0064	0.6851 ± 0.006
x1 = 0.44	1.16 ± 0.03	1.05 ± 0.02	0.96 ± 0.02	0.87 ± 0.02	–	–
x1 = 0.4512	1.297 ± 0.32	–	–	–	–	–
x1 = 0.4737	–	0.9177 ± 0.0078	0.8467 ± 0.0073	0.7863 ± 0.0068	0.7252 ± 0.0064	0.6742 ± 0.006
x1 = 0.5597	1.07 ± 0.02	0.98 ± 0.02	0.9 ± 0.1	0.82 ± 0.02	–	–
x1 = 0.5987	–	0.8585 ± 0.0075	0.7964 ± 0.007	0.7362 ± 0.0066	0.6938 ± 0.0062	0.6453 ± 0.0059
x1 = 0.6504	1.01 ± 0.02	0.94 ± 0.02	0.86 ± 0.02	0.8 ± 0.1	–	–
x1 = 0.7011	–	0.8282 ± 0.0074	0.771 ± 0.007	0.7187 ± 0.0066	0.6776 ± 0.0062	0.6312 ± 0.0059
x1 = 0.735	0.96 ± 0.02	0.89 ± 0.02	0.83 ± 0.02	0.76 ± 0.02	–	–
x1 = 0.7991	–	0.796 ± 0.0073	0.7476 ± 0.0069	0.6985 ± 0.0065	0.6578 ± 0.0062	0.6196 ± 0.0059
x1 = 0.8522	0.89 ± 0.02	0.83 ± 0.02	0.78 ± 0.02	0.72 ± 0.02	–	–
x1 = 0.8995	–	0.7844 ± 0.0074	0.7374 ± 0.007	0.6874 ± 0.0066	0.6507 ± 0.0063	0.614 ± 0.006
x1 = 0.9422	0.84 ± 0.02	0.79 ± 0.02	0.74 ± 0.02	0.69 ± 0.02	–	–

ClC(Cl)=C(Cl)Cl + CC(C)O
Settings	viscosity [mPa·s]
298.15 K, 101.3 kPa, x1 = 0.0763	1.855 ± 0.017
298.15 K, 101.3 kPa, x1 = 0.6349	1.025 ± 0.01
303.15 K, 101.33 kPa, x1 = 0.1028	1.473 ± 0.01
303.15 K, 101.33 kPa, x1 = 0.2072	1.251 ± 0.008
303.15 K, 101.33 kPa, x1 = 0.307	1.102 ± 0.007
303.15 K, 101.33 kPa, x1 = 0.3926	1.007 ± 0.007
303.15 K, 101.33 kPa, x1 = 0.5027	0.92 ± 0.006
303.15 K, 101.33 kPa, x1 = 0.6105	0.864 ± 0.006
303.15 K, 101.33 kPa, x1 = 0.6982	0.838 ± 0.006
303.15 K, 101.33 kPa, x1 = 0.7882	0.823 ± 0.006
303.15 K, 101.33 kPa, x1 = 0.8976	0.814 ± 0.006

O=[N+]([O-])c1ccccc1 + CCC(C)=O
303.15 K, 101 kPa
Settings	viscosity [mPa·s]
x2 = 0.1487	1.32 ± 0.0041
x2 = 0.3244	1.039 ± 0.0041
x2 = 0.4126	0.925 ± 0.004
x2 = 0.4992	0.82 ± 0.004
x2 = 0.7145	0.607 ± 0.004
x2 = 0.78	0.55 ± 0.004

CC(C)CCl + CCC(C)O
viscosity [mPa·s], 101.33 kPa
Settings	x1 = 0.1077	x1 = 0.2064	x1 = 0.3079	x1 = 0.4066	x1 = 0.5036	x1 = 0.648	x1 = 0.7018	x1 = 0.805	x1 = 0.8972
298.15 K	1.946 ± 0.018	1.381 ± 0.013	1.046 ± 0.011	0.8335 ± 0.0091	0.7002 ± 0.008	0.5685 ± 0.0069	0.5343 ± 0.0066	0.4815 ± 0.0062	0.4478 ± 0.006
313.15 K	1.254 ± 0.012	0.9644 ± 0.0097	0.7565 ± 0.0081	0.6299 ± 0.0071	0.5461 ± 0.0064	0.4591 ± 0.0058	0.4357 ± 0.0056	0.4015 ± 0.0054	0.3778 ± 0.0052

ClC(Cl)=C(Cl)Cl + CCC(C)O
viscosity [mPa·s]
Settings	x1 = 0.1024	x1 = 0.213	x1 = 0.3172	x1 = 0.4016	x1 = 0.5142	x1 = 0.6125	x1 = 0.7018	x1 = 0.7817	x1 = 0.8032	x1 = 0.9108
298.15 K, 101.3 kPa	–	–	–	–	–	–	–	1.005 ± 0.01	–	–
303.15 K, 101.33 kPa	1.918 ± 0.012	1.508 ± 0.01	1.263 ± 0.008	1.127 ± 0.008	1.005 ± 0.007	0.93 ± 0.006	0.884 ± 0.006	–	0.852 ± 0.006	0.822 ± 0.006

O=[N+]([O-])c1ccccc1 + CCC(C)O
viscosity [mPa·s], 100 kPa
Settings	x1 = 0.081	x1 = 0.16	x1 = 0.24	x1 = 0.35	x1 = 0.4949	x1 = 0.56	x1 = 0.65	x1 = 0.74	x1 = 0.8205	x1 = 0.9399
293.15 K	3.138 ± 0.057	2.694 ± 0.051	2.349 ± 0.046	2.041 ± 0.042	1.854 ± 0.04	1.838 ± 0.039	1.859 ± 0.04	1.915 ± 0.04	1.975 ± 0.041	2.078 ± 0.043
298.15 K	2.591 ± 0.049	2.246 ± 0.045	1.983 ± 0.041	1.74 ± 0.038	1.619 ± 0.036	1.612 ± 0.036	1.647 ± 0.037	1.719 ± 0.038	1.78 ± 0.039	1.861 ± 0.04
303.15 K	2.232 ± 0.045	1.989 ± 0.041	1.801 ± 0.039	1.632 ± 0.037	1.528 ± 0.035	1.521 ± 0.035	1.539 ± 0.035	1.58 ± 0.036	1.638 ± 0.037	1.708 ± 0.038
308.15 K	1.905 ± 0.04	1.731 ± 0.038	1.598 ± 0.036	1.476 ± 0.035	1.408 ± 0.034	1.405 ± 0.034	1.422 ± 0.034	1.459 ± 0.034	1.498 ± 0.035	1.577 ± 0.036
313.15 K	1.627 ± 0.037	1.489 ± 0.035	1.384 ± 0.033	1.289 ± 0.032	1.248 ± 0.032	1.252 ± 0.032	1.275 ± 0.032	1.32 ± 0.032	1.379 ± 0.033	1.457 ± 0.034
318.15 K	1.411 ± 0.034	1.309 ± 0.032	1.233 ± 0.031	1.169 ± 0.03	1.147 ± 0.03	1.155 ± 0.03	1.18 ± 0.031	1.224 ± 0.031	1.274 ± 0.032	1.351 ± 0.033
323.15 K	1.233 ± 0.031	1.159 ± 0.03	1.104 ± 0.03	1.058 ± 0.029	1.044 ± 0.029	1.055 ± 0.029	1.081 ± 0.029	1.122 ± 0.03	1.168 ± 0.03	1.253 ± 0.032

CCCCCCCCCCCCCC + CCCC(C)O
viscosity [mPa·s], 101.33 kPa
Settings	x1 = 0.0999	x1 = 0.2002	x1 = 0.3001	x1 = 0.3987	x1 = 0.5009	x1 = 0.6004	x1 = 0.6996	x1 = 0.8014	x1 = 0.9002
293.15 K	2.923 ± 0.29	2.557 ± 0.26	2.314 ± 0.23	2.191 ± 0.22	2.117 ± 0.21	2.1 ± 0.21	2.114 ± 0.21	2.141 ± 0.21	2.177 ± 0.22
303.15 K	2.381 ± 0.24	2.111 ± 0.21	1.928 ± 0.19	1.823 ± 0.18	1.752 ± 0.18	1.741 ± 0.17	1.748 ± 0.18	1.76 ± 0.18	1.787 ± 0.18
313.15 K	1.742 ± 0.18	1.58 ± 0.16	1.476 ± 0.15	1.41 ± 0.14	1.391 ± 0.14	1.392 ± 0.14	1.41 ± 0.14	1.441 ± 0.14	1.472 ± 0.15
323.15 K	1.362 ± 0.14	1.266 ± 0.13	1.192 ± 0.12	1.152 ± 0.12	1.148 ± 0.12	1.153 ± 0.12	1.171 ± 0.12	1.21 ± 0.12	1.24 ± 0.12
